One block for each molecule: values may come before it.
Assays:
[1] = test system: Fc-Endostatin-resistant LLC cells (Endo P4); test: Fc-Endostatin-resistant LLC tumors, passage 5, IGF1R inhibitor; assay type: in vivo, C57B16 mice
Text: Previously generated passage four Fc-Endostatin-resistant LLC cells (Endo P4, as described in the following examples) were subcutaneously injected to C57B16 mice.

Wild type LLC tumors = test: Wild type LLC lung cancer model, prevention trial; assay type: in vivo, C57B16 mice
Procedure: Wild type LLC tumors (10.000 cells) were implanted s.c. in C57B16 mice. Tumors were sham treated (PBS, control), with the reference FN-mimetic-peptide (“FN-Motif”) containing only the “[…]” sequence (SEQ ID NO: 8) or with murine Superstatin (SEQ ID NO: 7) at the dose of 50 μg peptide in 100 μl PBS every 12 h s.c. (n: 5 in each group). Treatment was started 4 days after tumor implantation (“prevention trial”) and continued for 24 days. […] Tumor size reaching 1000 mm^2 was considered as death event in the Kaplan-Meier analysis.
Tumors were sham treated (PBS), with the reference FN-mimetic-peptide containing only the “[…]” sequence (SEQ ID NO: 8; FN motif) or with murine Superstatin (SEQ ID NO: 7) at the dose of 50 μg peptide in 100 μl PBS every 12 h s.c. (n: 5 in each group). Treatment was started 4 days after tumor implantation (“prevention trial”) and continued for 24 days. […] Tumor size reaching 1000 mm^2 was considered as death event in the Kaplan-Meier analysis.

LLC FN −/− tumor cells = test: Fibronectin knockdown LLC tumor model; assay type: in vivo, C57B16 mice; details: treatment started day 4 post implantation; p<0.01 vs control or Fc-Endostatin
Text: In contrast, the Superstatin peptide (SEQ ID NO: 7) exerts potent tumor growth inhibition in FN −/− LLC tumors growing s.c. in C57B16 mice.
Once the efficacy of the Superstatin peptide (SEQ ID NO: 7) was confirmed, the inventors moved toward the second strategy to validate the proposed concept that FN signaling is critical for oligomeric NC-1 to exert their anti-angiogenic and anti-tumoral effects. […] LLC FN −/− tumor cells (100.000) were implanted in C57B16 mice and treatment with dimeric murine Fc-Endostatin vs. Superstatin was started on day 4 post implantation. Knockdown of FN rendered LLC tumors resistant to oligomeric NC-1 (Fc-Endostatin).

fibronectin [2] = molecular target: T1, fibronectin (Homo sapiens, UniProt P02751); test: Biacore (SPR) equilibrium binding constants to fibronectin; details: fibronectin 0.78 nM-100 nM over immobilized protein; values only in FIG. 1C
T1 sequence (P02751 32-2477): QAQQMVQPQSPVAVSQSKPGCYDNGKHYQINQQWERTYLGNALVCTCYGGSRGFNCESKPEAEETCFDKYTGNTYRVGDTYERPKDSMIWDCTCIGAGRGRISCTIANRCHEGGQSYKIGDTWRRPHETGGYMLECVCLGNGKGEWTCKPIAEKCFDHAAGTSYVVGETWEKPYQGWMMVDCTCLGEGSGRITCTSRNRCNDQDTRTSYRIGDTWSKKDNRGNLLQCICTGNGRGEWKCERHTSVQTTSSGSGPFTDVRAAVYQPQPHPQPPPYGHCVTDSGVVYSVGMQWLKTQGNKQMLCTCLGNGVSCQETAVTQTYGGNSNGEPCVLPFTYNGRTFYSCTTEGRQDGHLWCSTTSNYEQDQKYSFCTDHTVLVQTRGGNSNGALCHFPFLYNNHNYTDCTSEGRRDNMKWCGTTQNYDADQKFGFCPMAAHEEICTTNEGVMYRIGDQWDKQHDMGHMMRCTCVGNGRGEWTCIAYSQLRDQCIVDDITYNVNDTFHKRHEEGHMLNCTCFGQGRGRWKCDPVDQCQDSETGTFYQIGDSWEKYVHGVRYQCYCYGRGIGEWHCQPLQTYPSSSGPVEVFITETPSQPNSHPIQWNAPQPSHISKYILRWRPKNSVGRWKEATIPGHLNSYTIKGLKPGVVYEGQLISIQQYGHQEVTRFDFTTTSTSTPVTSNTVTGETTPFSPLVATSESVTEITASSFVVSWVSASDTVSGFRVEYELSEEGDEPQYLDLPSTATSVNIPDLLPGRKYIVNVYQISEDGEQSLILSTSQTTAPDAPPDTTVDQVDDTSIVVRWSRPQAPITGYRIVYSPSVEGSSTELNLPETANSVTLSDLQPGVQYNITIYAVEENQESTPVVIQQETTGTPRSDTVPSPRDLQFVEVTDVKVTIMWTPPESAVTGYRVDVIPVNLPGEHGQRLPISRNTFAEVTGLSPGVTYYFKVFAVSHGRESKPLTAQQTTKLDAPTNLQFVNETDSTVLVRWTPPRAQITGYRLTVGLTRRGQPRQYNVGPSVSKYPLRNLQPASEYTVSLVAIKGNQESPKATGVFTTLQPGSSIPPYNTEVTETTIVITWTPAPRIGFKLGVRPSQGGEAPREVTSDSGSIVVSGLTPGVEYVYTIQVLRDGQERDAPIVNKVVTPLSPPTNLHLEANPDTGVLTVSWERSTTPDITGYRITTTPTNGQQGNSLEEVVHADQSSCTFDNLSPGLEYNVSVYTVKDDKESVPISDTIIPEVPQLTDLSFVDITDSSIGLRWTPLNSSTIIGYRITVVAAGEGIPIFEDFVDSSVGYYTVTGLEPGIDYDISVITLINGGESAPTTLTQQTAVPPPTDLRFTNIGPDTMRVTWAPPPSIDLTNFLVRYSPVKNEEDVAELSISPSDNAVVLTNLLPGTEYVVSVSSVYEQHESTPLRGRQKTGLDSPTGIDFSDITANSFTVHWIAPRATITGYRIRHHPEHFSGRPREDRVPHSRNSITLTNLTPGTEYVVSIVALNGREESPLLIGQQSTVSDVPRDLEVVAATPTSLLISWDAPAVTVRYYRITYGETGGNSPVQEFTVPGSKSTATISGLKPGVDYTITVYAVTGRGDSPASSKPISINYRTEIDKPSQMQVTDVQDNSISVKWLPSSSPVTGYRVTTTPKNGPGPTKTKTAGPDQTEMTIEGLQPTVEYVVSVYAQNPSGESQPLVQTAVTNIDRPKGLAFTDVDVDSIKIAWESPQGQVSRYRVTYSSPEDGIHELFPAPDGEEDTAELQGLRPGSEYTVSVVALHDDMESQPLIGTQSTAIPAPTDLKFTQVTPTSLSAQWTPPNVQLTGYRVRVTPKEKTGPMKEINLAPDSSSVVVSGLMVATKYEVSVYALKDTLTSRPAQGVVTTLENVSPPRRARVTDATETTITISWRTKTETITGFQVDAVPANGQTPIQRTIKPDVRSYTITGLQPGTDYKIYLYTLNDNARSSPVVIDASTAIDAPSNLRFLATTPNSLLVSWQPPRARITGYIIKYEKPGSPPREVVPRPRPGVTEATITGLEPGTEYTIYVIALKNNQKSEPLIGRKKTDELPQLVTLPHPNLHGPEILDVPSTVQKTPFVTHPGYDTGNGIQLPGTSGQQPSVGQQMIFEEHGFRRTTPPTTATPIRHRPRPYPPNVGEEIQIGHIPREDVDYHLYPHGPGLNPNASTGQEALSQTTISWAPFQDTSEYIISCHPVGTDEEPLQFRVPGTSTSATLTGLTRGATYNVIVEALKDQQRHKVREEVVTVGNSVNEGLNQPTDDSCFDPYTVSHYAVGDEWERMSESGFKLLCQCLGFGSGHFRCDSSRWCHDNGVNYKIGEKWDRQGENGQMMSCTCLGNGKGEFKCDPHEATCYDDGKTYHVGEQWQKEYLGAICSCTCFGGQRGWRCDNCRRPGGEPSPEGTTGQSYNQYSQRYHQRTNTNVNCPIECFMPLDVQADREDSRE
Procedure: Fibronectin samples were prepared by serial dilution into 0.01 M Hepes, pH 7.4, 0.15 M NaCl, 0.05% Surfactant containing 1 mg/ml BSA in the range 0.78 nM-100 nM and flowed over control and derivatized surfaces for three minutes at a flow-rate of 60 μl/min. Dissociation phases were monitored for 5 minutes. Zero concentration blank buffer cycles were included as negative control samples. Sensor surfaces were regenerated using a 1 minute injection of 1 M ethanolamine, pH 8.5 following each interaction analysis cycle. Non-specific binding effects to sensor surface CM4 were not observed. Calculated ka, kd and KD are shown. Different curves correspond to different concentrations of fibronectin.
1.3 Surface Plasmon Resonance (SPR) binding assays. This analysis provides for a unique method for measuring equilibrium constants between two binding partners. It is able to evaluate the kinetics of an interaction by recording the rates of complex formation (ka) and dissociation (kd) followed by employing a software which determines the values of these two parameters. Equilibrium constant (KD) is obtained by calculating the ration of kd/ka Human VEGF (R&D), endostatin, endostatin dimer and human NC-1 (hNC-1) were diluted to 50 μg/ml in 10 mM Sodium Acetate, pH 5.5 and immobilized onto series S sensor chip(s) CM4 via a standard N-ethyl-N′-(dimethyl-aminopropyl)carbodiimide/N-hydroxysuccinimide (EDC/NHS) amine coupling procedures. Control surfaces were prepared similarly without protein derivatization and utilized as a reference surface for compound binding experiments.
Binding measurements were performed using a Biacore™ (GE Healthcare, Uppsala, Sweden) instrument which employs surface plasmon resonance to detect and monitor molecular interactions.
Data analysis was carried out using Biacore T100 evaluation software v1.1.1. Data were prepared by subtraction of reference surface data and blank buffer sample data, a procedure commonly referred to as ‘double referencing’ and fitted to a 1:1 langmuir binding model.
In order to measure equilibrium binding constants for the above proteins, a Biacore system was employed. […] Fc-endostatin imposes a dimeric structure on the two molecules of endostatin at the C-terminus of Fc dimer.

fibronectin [3] = molecular target: T1, fibronectin; test: Elisa, binding to fibronectin; details: proteins coated at 10 μg/ml; fibronectin as ligand at the same concentration
Procedure: Coating of proteins were done in PBS at concentration of 10 μg/ml. Fibronectin served as a ligand at the same concentration. All buffers contained 2% BSA, 0.1% Tween-20.
Three protein constructs human Fc (control), dimeric human (h)Fc-Endostatin and hFc-VEGF were employed. […] Artificial endostatin dimer was generated by introducing a single mutation in amino acid position 7 of endostatin (changing glutamine to cysteine) in the recombinant Fc-endostatin. Upon digestion of this mutant protein by enterokinase, endostatin dimer is produced, linked by a disulfide bond (Kuo et al., loc. cit.).

VEGF = molecular target: T2, VEGF (Homo sapiens, UniProt P15692); test: Competition with VEGF-ED-dimer (Fc-Endostatin) binding; details: preliminary data
T2 sequence (P15692 207-395 limits assumed): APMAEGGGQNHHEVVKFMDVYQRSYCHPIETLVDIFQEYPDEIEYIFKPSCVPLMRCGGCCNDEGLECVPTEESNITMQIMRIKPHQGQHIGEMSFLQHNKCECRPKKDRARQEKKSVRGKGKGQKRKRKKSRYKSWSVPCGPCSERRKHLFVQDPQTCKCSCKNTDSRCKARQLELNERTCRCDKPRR
Text: The first approach was to engineer a minimal peptide sequence that would mimic the key effects of the ED-FN complex. […] Preliminary data by the present inventors indicate that this region itself may be capable of binding to VEGF and that the two histidines (Zinc binding domain) in this peptide sequence may be critical for VEGF binding. […] On the other hand, fibronectin contains two active motifs that are critical for its binding to ITGA5B1, i.e. a PHSRN-(SEQ ID NO:20) and a RGD-dependent motif.

[4] = test system: human melanoma cancer cells (A2058); test: A2058 human melanoma tumors in nude mice; assay type: in vivo; details: end of experiment; s.c. once a day; hNC-1 100 μg/mouse, endostatin 100 and 500 μg/mouse
Procedure: 4-6 tumor-bearing nude mice in each group were subcutaneously (s.c.) treated with hNC-1 (100 μg/mouse once a day), clinical-grade endostatin (100 and 500 μg/mouse once a day) or PBS. Treatment was stopped prior to the development of necrosis. Sites of injection were away from tumors. Tumor sizes and the ratio of treated/control (T/C) is shown.
1.4 Animal and tumor models. All animal procedures were carried out in compliance with Children's Hospital Boston guidelines Protocols were approved by the Institutional Animal Care and Use Committee. Eight-week-old male (24-27 g) nude/nude mice (Massachusetts General Hospital, Boston, MA) were used. Mice were acclimated, caged in groups of five in a barrier care facility, and fed animal chow and water ad libitum. Animals were euthanized by CO2 inhalation. Human melanoma cell line A2058 was used for animal studies. A suspension of 2×10^6 tumor cells in 0.1 ml of PBS was injected subcutaneously (s.c.) into the dorsa of mice at the proximal midline. Mice were weighed and tumors were monitored twice a week in two diameters with digital calipers. Tumor volumes were determined using a^2×b×0.52 (where a is the shortest and b is the longest diameter). Tumors were allowed to grow to ˜100 mm^3 and mice were randomized. Treatment was by bolus s.c. injections. After experiments were completed, tumors and organs were excised and fixed in either 4% paraformaldehyde or were snap frozen. Four to six mice were treated with each group.
2.6 hNC-1 suppresses tumor growth in vivo. In order to compare anti-tumor activities of NC-1 and endostatin, nude mice bearing human melanoma cell line A2058 were employed. Two doses of clinical grade endostatin differing by 5-fold in concentration of protein (low and high doses) were used. […] It cannot be ruled out the possibility that injected NC-1 becomes degraded upon entering the circulation.

[5] = in vivo; cited from earlier work
[6] = cited from earlier work
α5β1 = α5β1 (Homo sapiens, UniProt P05556+P08648); test: Direct binding to integrin α5β1 (Elisa, immunoprecipitation, cell adhesion); details: immunoprecipitation and cell adhesion assays
Sequence of α5β1 (P08648 42-894 limits assumed): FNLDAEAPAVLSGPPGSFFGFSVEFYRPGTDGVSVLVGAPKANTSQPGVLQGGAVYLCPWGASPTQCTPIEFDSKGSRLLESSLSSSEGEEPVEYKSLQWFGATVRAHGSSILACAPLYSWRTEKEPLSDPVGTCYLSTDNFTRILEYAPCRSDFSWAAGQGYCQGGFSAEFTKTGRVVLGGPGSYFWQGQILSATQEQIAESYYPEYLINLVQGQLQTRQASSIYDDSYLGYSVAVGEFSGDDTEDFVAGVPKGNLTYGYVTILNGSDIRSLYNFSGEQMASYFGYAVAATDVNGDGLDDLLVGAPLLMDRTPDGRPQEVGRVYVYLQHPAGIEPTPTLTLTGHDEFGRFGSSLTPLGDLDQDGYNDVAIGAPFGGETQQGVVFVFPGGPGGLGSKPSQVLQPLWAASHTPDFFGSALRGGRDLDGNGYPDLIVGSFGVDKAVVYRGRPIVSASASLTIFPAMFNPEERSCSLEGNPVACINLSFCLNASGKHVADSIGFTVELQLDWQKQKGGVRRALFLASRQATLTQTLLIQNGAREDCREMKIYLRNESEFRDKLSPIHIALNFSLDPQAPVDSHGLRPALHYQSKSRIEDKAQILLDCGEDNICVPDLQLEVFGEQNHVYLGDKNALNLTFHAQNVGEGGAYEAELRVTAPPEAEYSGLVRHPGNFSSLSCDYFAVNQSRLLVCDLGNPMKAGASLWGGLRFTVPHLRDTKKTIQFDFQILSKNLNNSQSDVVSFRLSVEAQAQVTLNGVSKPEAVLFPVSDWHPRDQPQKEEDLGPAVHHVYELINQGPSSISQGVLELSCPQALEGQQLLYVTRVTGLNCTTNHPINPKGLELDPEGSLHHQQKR
Sequence of α5β1 (P08648 895-1049 limits assumed): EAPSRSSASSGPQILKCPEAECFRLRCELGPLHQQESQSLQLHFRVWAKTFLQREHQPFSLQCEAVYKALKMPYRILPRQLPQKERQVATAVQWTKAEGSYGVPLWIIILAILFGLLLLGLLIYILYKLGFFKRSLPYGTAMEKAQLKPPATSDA
Sequence of α5β1 (P05556 21-798): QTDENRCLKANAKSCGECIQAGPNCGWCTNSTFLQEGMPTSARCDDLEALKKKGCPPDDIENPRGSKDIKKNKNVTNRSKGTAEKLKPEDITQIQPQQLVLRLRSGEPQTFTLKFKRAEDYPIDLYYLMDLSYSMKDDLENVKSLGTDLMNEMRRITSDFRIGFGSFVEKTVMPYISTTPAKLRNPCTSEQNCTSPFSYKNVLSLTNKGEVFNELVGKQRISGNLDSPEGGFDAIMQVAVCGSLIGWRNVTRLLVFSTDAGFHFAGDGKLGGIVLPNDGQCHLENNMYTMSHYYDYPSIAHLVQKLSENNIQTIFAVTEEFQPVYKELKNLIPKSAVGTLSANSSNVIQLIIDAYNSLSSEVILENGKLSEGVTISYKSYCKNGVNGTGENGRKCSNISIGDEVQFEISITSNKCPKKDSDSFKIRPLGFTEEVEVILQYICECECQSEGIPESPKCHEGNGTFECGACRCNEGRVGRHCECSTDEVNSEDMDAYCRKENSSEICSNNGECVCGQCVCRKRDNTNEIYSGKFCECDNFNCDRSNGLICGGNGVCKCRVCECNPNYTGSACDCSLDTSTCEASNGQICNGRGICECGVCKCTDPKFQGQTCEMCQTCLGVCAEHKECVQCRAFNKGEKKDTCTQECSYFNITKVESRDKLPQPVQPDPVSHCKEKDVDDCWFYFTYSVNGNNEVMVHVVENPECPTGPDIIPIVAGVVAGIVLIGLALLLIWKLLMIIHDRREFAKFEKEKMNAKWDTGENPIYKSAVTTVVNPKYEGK
Text: Endostatin binding to two integrins αvβ3 and α5β1 was first reported in 2001 (Rehn et al. 2001, PNAS 98, 1024). Presumably, such a binding inhibits interactions of fibronectin with these integrins. […] Endostatin lacks the sequence RGD. Consequently, such a binding must be mediated by other amino acids on endostatin.

[7] = 50 μg peptide every 12 h s.c., day 4 on for 24 days

Molecule: COc1cc([C@@H]2c3cc4c(cc3[C@H](O)[C@H]3COC(=O)[C@@H]23)OCO4)cc(OC)c1OC [PPP, cyclolignan picropodophyllin]
tumor growth, sequential IGF1R inhibition ([1]; 20 mg/kg IP, sequential to mFc-Endo): inhibited tumor growth
tumor growth, concurrent administration ([1]; concurrent with mFc-Endo): only partially reversed the enhanced growth kinetic
protein expression in passage 5 LLC tumors (Western blot) ([1]; mouse, in vivo): partially reversed this phenotype

Molecule: FN-Motif: LYAVTGRGDSPASSK (SEQ ID NO: 8; same sequence as SEQ ID NO: 11) (listed as Mus musculus) [reference compound]
tumor growth (Wild type LLC tumors; [7]): no significant improvement in prevention of tumor growth

Molecule: Superstatin: HTHQDFQPVLHLVLYAVTGRGDSPASSK (SEQ ID NO: 7), NC1-ED Motif-FN-Motif hybrid (listed as Mus musculus)
tumor growth in FN −/− LLC tumors (LLC FN −/− tumor cells): significantly inhibited tumor growth
tumor growth (Wild type LLC tumors; [7]): potently inhibit tumor growth
survival (Kaplan-Meier) as compared to control (Wild type LLC tumors; 50 μg peptide every 12 h s.c., day 4 on for 24 days, p<0.03 by log-rank test): significantly prolonged survival
tumors growing during the treatment period (Wild type LLC tumors; n: 5 in each group): only a single tumor grew

equilibrium binding constant to fibronectin (Biacore) (fibronectin [2]): High affinity constants
binding to fibronectin (Elisa) (fibronectin [3]): bound fibronectin
Molecule: VEGF [reference compound]

competition with VEGF-ED-dimer (Fc-Endostatin) binding (VEGF): failed to compete
Molecule: mP1-H1/3A: ATAQDFQPVLHLVALNTPLSGGMRGIR (SEQ ID NO: 19) (mP1-H1/3A)

equilibrium binding constant to fibronectin (Biacore) (fibronectin [2]): No binding was detected
binding to fibronectin (Elisa) (fibronectin [3]): did not
direct binding to α5β1 (α5β1): without success
B1: endostatin: 183-amino acid proteolytic cleavage fragment corresponding to the C-terminus of collagen 18 (protein, UniProt P39060 1572-1754, looked up)
Endostatin: HSHRDFQPVLHLVALNSPLSGGMRGIRGADFQCFQQARAVGLAGTFRAFLSSRLQDLYSIVRRADRAAVPIVNLKDELLFPSWEALFSGSEGPLKPGARIFSFDGKDVLRHPTWPQKSVWHGSDPNGRRLTESYCETWRTEAPSATGQASSLLGGRLLGQSAASCHHAYIVLCIENSFMTASK
modifications: Endostatin
inhibition of tumor growth [4]: 48%
half-life in circulation [5]: very short
anti-tumor activity in clinical trials ([6]; in vivo): did not demonstrate substantial endostatin anti-tumor activity
safety in clinical trials ([6]; variety of dose schedules): very safe drug

equilibrium binding constant to fibronectin (Biacore) (fibronectin [2]): High affinity constants
binding to fibronectin (Elisa) (fibronectin [3]): bound fibronectin
B2: Endostatin dimer: disulfide-linked endostatin dimer, glutamine to cysteine at position 7, released from Fc-endostatin by enterokinase (protein, UniProt P39060 1572-1754, looked up, variant Q7C)
Endostatin: HSHRDFCPVLHLVALNSPLSGGMRGIRGADFQCFQQARAVGLAGTFRAFLSSRLQDLYSIVRRADRAAVPIVNLKDELLFPSWEALFSGSEGPLKPGARIFSFDGKDVLRHPTWPQKSVWHGSDPNGRRLTESYCETWRTEAPSATGQASSLLGGRLLGQSAASCHHAYIVLCIENSFMTASK
modifications: Endostatin disulfide-linked dimer
notes: disulfide-linked endostatin dimer, glutamine to cysteine at position 7, released from Fc-endostatin by enterokinase
